Experimental data reported in ChEMBL document CHEMBL5338739, “Discovery of Dual Lysine Methyltransferase G9a and EZH2 Inhibitors with In Vivo Efficacy against Malignant Rhabdoid Tumor” (J Med Chem, 2023).
Calls of active or inactive are those of the source. The calls are words filed in the database; no cut-off is given here.

How the values were obtained:
[1] = test system: RD; test: Cytotoxicity against human RD cells assessed as reduction in cell viability incubated for 72 hrs by MTT assay; type: functional
[2] = test system: SW982; test: Cytotoxicity against human SW982 cells assessed as reduction in cell viability incubated for 72 hrs by MTT assay; type: functional
[3] = test system: Mus musculus; test: Downregulation of H3K27me3 expression in tumor tissue of BALB/c nude mouse xenografted with human RD cells at 20 mg/kg, ip administered for 5 consecutive days followed by 2 rest days for 3 weeks by Western blotting analysis; type: functional, organism-based
[4] = test system: Mus musculus; test: Downregulation of H3K9me2 expression in tumor tissue of BALB/c nude mouse xenografted with human RD cells at 20 mg/kg, ip administered for 5 consecutive days followed by 2 rest days for 3 weeks by Western blotting analysis; type: functional, organism-based
[5] = test system: RD; test: Antitumor activity against human RD cells xenografted in BALB/c nude mouse assessed as tumor growth inhibition at 20 mg/kg, ip administered for 5 consecutive days followed by 2 rest days for 3 weeks; details: 504 h, read-out: TGI
[6] = molecular target: T1, Histone-lysine N-methyltransferase EHMT2 (Homo sapiens, UniProt Q96KQ7); test: Inhibition of human recombinant EHMT2 G9a using SAM as substrate incubated for 1 hr by microplate luminescence based HMT assay
T1 sequence (Q96KQ7 whole entry): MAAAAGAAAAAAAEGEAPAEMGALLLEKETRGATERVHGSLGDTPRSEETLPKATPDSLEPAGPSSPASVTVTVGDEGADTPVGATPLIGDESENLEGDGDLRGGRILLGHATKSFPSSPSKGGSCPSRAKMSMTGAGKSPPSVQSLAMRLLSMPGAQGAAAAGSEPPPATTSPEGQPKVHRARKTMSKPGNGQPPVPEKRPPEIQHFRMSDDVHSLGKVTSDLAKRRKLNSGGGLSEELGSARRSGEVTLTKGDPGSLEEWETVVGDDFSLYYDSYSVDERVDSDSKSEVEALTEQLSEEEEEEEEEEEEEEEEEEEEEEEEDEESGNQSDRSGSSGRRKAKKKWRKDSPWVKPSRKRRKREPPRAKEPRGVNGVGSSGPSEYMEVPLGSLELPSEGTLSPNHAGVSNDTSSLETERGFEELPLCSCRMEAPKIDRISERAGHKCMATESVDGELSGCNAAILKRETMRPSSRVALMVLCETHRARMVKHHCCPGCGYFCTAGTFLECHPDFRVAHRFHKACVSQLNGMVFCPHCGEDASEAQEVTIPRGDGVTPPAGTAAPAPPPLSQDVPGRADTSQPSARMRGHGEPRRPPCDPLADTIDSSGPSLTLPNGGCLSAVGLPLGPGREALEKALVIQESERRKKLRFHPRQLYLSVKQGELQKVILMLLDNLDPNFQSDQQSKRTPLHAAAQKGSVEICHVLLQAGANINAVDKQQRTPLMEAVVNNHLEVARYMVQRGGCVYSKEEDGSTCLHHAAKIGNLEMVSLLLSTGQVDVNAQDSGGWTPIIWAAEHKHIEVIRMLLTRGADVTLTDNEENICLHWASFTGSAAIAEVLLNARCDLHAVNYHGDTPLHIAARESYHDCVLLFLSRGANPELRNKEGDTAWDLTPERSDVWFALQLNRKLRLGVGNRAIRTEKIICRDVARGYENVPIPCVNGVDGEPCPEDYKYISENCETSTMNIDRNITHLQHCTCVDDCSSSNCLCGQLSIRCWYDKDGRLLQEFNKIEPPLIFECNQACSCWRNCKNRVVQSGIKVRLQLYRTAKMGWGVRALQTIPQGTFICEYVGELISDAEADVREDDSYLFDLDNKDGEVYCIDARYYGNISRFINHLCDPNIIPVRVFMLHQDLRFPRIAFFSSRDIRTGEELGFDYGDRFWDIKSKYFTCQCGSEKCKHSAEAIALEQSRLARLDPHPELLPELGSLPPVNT

[7] = molecular target: Histone-lysine N-methyltransferase EZH2 (Homo sapiens, UniProt Q15910); test: Inhibition of human EZH2 using SAM as substrate incubated for 1 hr by microplate luminescence based HMT assay
Sequence of Histone-lysine N-methyltransferase EZH2 (Q15910 whole entry): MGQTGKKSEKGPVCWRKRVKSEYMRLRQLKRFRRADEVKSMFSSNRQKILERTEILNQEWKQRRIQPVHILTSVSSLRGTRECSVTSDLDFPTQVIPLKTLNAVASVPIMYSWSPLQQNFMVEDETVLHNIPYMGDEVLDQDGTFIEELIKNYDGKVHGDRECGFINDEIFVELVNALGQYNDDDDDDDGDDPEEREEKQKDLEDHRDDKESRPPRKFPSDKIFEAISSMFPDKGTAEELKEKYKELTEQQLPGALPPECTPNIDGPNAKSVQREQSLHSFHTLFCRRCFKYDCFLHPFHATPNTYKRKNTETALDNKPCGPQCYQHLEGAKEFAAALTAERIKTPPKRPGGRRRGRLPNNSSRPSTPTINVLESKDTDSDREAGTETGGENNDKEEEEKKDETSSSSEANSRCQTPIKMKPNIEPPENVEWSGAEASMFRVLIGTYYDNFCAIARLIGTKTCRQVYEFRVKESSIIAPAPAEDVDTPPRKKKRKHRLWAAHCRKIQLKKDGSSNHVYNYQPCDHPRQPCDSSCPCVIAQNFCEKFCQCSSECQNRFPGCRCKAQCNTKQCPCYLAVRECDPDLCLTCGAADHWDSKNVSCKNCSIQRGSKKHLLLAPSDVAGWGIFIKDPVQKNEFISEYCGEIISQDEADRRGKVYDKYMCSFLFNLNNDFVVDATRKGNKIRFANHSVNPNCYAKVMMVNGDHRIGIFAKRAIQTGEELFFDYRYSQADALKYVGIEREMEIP

[8] = test system: RD; test: Antiproliferative activity against human RD cells assessed as reduction in clone formation rate at 5 uM for 1 to 2 weeks with fresh medium replacement for every 2 to 3 days by crystal violet staining based microscopic analysis; type: functional, cell-based; details: time 1-2 weeks
[9] = test system: SW982; test: Antiproliferative activity against human SW982 cells assessed as reduction in clone formation rate at 5 uM for 1 to 2 weeks with fresh medium replacement for every 2 to 3 days in presence of tazemetostat by crystal violet staining based microscopic analysis; type: functional, cell-based; details: time 1-2 weeks
[10] = test system: RD; test: Antiproliferative activity against human RD cells assessed as reduction in clone formation rate at 5 uM for 1 to 2 weeks with fresh medium replacement for every 2 to 3 days in presence of tazemetostat by crystal violet staining based microscopic analysis; type: functional, cell-based; details: time 1-2 weeks
[11] = test system: SW982; test: Antiproliferative activity against human SW982 cells assessed as reduction in clone formation rate at 5 uM for 1 to 2 weeks with fresh medium replacement for every 2 to 3 days by crystal violet staining based microscopic analysis; type: functional, cell-based; details: time 1-2 weeks

Row | Compound | CC50 [1] [µM] | CC50 [2] [µM] | further results
1 | COc1cc2c(NCc3c(C)cc(C)[nH]c3=O)nc(N3CCCCC3)nc2cc1OCCCN1CCCC1 | 41.3 | 27 | 
2 | COc1cc2c(NCc3c(C)cc(C)[nH]c3=O)nc(N(C)CCN(C)C)nc2cc1OCCCN1CCCC1 | 74.3 | 78.3 | 
3 | COc1cc2nc(N(C)CCCN(C)C)nc(NCc3c(C)cc(C)[nH]c3=O)c2cc1OC | 76 | 101 | 
4 | COc1cc2c(NCc3c(C)cc(C)[nH]c3=O)nc(N3CCCN(C)CC3)nc2cc1OCCCN1CCCC1 | 56.5 | 48.9 | 
5 | COc1cc2c(NCc3c(C)cc(C)[nH]c3=O)nc(N3CCCC3)nc2cc1OCCCN1CCCC1 | 75.7 | 90.2 | 
6 | CCN(c1cc(-c2ccc(CN3CCOCC3)cc2)cc(C(=O)NCc2c(C)cc(C)[nH]c2=O)c1C)C1CCOCC1 [TAZEMETOSTAT] | 245 | 116 | Activity [3]: Active; Activity [4]: Active; inhibition in vivo at 20 mg/kg [5]: 69.2%
7 | CCN(CC)c1nc(NCc2c(C)cc(C)[nH]c2=O)c2cc(OC)c(OCCCN3CCCC3)cc2n1 | 82.5 | 87.7 | 
8 | COc1cc2nc(N3CCN(C)CC3)nc(NCc3c(C)cc(C)[nH]c3=O)c2cc1OC | 79.9 | 106 | 
9 | COc1cc2nc(N3CCOCC3)nc(NCc3c(C)cc(C)[nH]c3=O)c2cc1OC | 77.2 | 89.2 | 
10 | COc1cc2nc(N3CCCN(C)CC3)nc(NCc3c(C)cc(C)[nH]c3=O)c2cc1OC | 68.5 | 99.8 | IC50 [6]: 0.015 µM; IC50 [7]: 0.0533 µM
11 | COc1cc2c(NCc3c(C)cc(C)[nH]c3=O)nc(N3CCOCC3)nc2cc1OCCCN1CCCC1 | 73.8 | 99.8 | 
12 | COc1cc2nc(N(C)CCN(C)C)nc(NCc3c(C)cc(C)[nH]c3=O)c2cc1OC | 84.9 | 85.7 | 
13 | COc1cc2c(NCc3c(C)cc(C)[nH]c3=O)nc(N3CCN(C)CC3)nc2cc1OCCCN1CCCC1 | 60.1 | 67.2 | 
14 | COc1cc2c(NC3CCN(C(C)C)CC3)nc(C3CCCCC3)nc2cc1OCCCN1CCCC1 | 34.2 | 29.5 | Activity [8]: Active; Activity [9]: Active; Activity [10]: Active; Activity [11]: Active
15 | CCN1CCN(c2nc(NCc3c(C)cc(C)[nH]c3=O)c3cc(OC)c(OCCCN4CCCC4)cc3n2)CC1 | 22.7 | 53.6 | 
16 | COc1cc2c(NCc3c(C)cc(C)[nH]c3=O)nc(N3CCCCCC3)nc2cc1OCCCN1CCCC1 | 23.5 | 35.7 | 
17 | COc1cc2c(NCc3c(C)cc(C)[nH]c3=O)nc(N3CCC(OC)CC3)nc2cc1OCCCN1CCCC1 | 40.1 | 61.6 | 
18 | COc1cc2c(NCc3c(C)cc(C)[nH]c3=O)nc(N(C)C)nc2cc1OCCCN1CCCC1 | 74.4 | 85 | 
